Experimental data from patent US12485110B2, “Use of ergothioneine for extending lifespan or improving healthspan” (NANJING NUTRABUILDING BIO-TECH CO., LTD., priority 2022, dated 2025).

Experiments:
[1] = test system: C. elegans; experiment: Acute toxicity assay; format: in vivo
Description: Making culturing plates with ergothioneine: C. elegans is usually grown in the laboratory using E. coli as a food source. Nematode Growth Medium (NGM) plates have been prepared by aseptically pouring NGM agar into petri plates. Ergothioneine was dissolved in water to make a working solution of 0.5 M and then mixed with E. coli liquid culture before seeding on NGM agar plates. The seeding spots were dried slowly, allowing ergothioneine to diffuse into the food bacteria and the agar for at least 24 hours before worms are introduced. The indicated ergothioneine dosages (0, 640 nM, 3.2 μM, 16 μM, 80 μM, 400 μM, 2 mM, and 10 mM) are based on the total volume of the plates.
The acute toxicity assay tests toxicity in adult worms by simulating the actual conditions of the lifespan assay. […] Second, over time worm deaths are scored to rule out doses that will likely have a negative impact on lifespan despite lacking immediate toxicity. […] Adult worms were monitored in the days immediately following exposure for early lethality or any other obvious defects.
Worms were treated with either vehicle control or ergothioneine at doses spanning a range from […] to 10 mM on media identical to what would be used in the lifespan experiment. […] Worms were examined for immediate toxic effects and then scored intermittently for survival until the start of lifespan experiment in the next step (see example 2 below). […]

[2] = test system: C. elegans; experiment: Differential gene expression by mRNA sequencing (RNA-Seq); format: in vivo; settings: for Number of genes differentially expressed above threshold: 5 mM vs control
Description: More than 150 day-1 adult worms per replicate were harvested, cleaned by filtration, and frozen at −80° C. in Trizol. To extract RNA, samples were thawed, vigorously vortexed, and processed using the Direct-zol RNA Miniprep Kit (Zymo Research). All samples exceeded our threshold for RNA quantity and quality.
RNA samples were submitted to Novogene Co. Ltd and subjected to more stringent QC, being tested on a Qubit for concentration and run on an agarose gel and on the Agilent 2100 to assess RNA quality and integrity.
The total RNA is then enriched for poly-mRNA using oligo(dT) paramagnetic beads. DNA libraries were then constructed from this input mRNA using the NEB Next Ultra™ II RNA Library Prep Kit. This creates a ready-to-sequence dsDNA library that retains the strand-specific information in the original mRNA. These libraries were then further tested by the Qubit for concentration and the Agilent 2100 for library size distribution and quality. In order to properly pool the libraries and load them onto sequencing lanes to ensure the correct number of reads per sample, an even more precise quantification of the library was done via qPCR, and the samples were loaded onto the NovaSeq 6000 platform for a paired-end sequencing run of 150 bp for each end (PE150). The loading concentrations were designed to obtain at least 6.0 Gb (which is the number of billion bases of raw data, determined by the number of reads multiplied by the length of each read).
Sequencing run data quality control was performed both by Novogene and again by inventors of this application. The raw data set was analyzed for: • 1. The distribution of base quality along the length of the sequencing read; • 2. The distribution of error rate along the length of the sequencing read; • 3. The distribution of A/T/G/C bases along the length of the sequencing read; • 4. The distribution of raw data filtering results based on the following three criteria: • a. Removing reads containing adapter sequence, • b. Remove reads with N>10% (where N means “base cannot be determined”), • c. Remove reads with a low quality (Qscore<=5) for 50% or more of its total bases.
To identify potential mechanisms of action through which Ergothioneine could affect aging, global gene expression was analyzed by mRNA sequencing (RNA-Seq). Both young (adult day 3) and aged (adult day 10) worms were collected from the same population of worms tested in the lifespan assay.
Differential gene expression was performed with EdgeR using […] likelihood ratio tests based on fitting linear models. The likelihood ratios were used to determine the p-values which were subsequently corrected for using the BH false discovery rate (fdr) method. Ultimately, differentially expressed genes (DEG) were defined as genes with an fdr-corrected p-value of 0.05 or lower, as well as a change in expression of at least 2-fold in a given between-group comparison. In this study, the comparison groups in Table 5 were used:
Reading Volcano Plots (log 2 fold change, Log FC): Positive values mean that the gene is more expressed in Treatment, and negative values mean the gene is more expressed in Control. The farther the dot is from the origin point on the x-axis, the greater the expression fold-change. Genes represented in green show a larger than 2-fold change in expression but are not deemed statistically significant due to replicate variability or low read count. Genes represented by red dots show greater than 2-fold change and expression that is statistically significant. The higher on the y-axis, the greater the calculated level of significance.

[3] = 5 mM vs vehicle control, Day 10, log 2 fold change
[4] = 5 mM vs. vehicle control, Day 3, log 2 fold change

C[N+](C)(C)[C@@H](Cc1c[nH]c(=S)[nH]1)C(=O)[O-] [Ergo, Ergothioneine]
Early lethality (FIG. 3) ([1]; 2 mM, upper end of the remaining doses): did not cause early lethality | Early lethality (FIG. 3) ([1]; 10 mM, day 10 post treatment, L4 stage worms, 25° C.): showed an early lethality | Number of genes differentially expressed above threshold ([2]; Day 3, cpr-1, mtl-1, argk-1, fdr P 0.05 or lower and at least 2-fold): 3 | Number of genes differentially expressed above threshold ([2]; Day 10, F55G11.4): 1 | log FC, gene C30G12.2 [2, 3]: 0.55 | log FC, gene F55G11.4 [2, 3]: −1.09 | log FC, gene K07C11.7 [2, 3]: −0.43 | log FC, gene TO5E12.6 [2, 3]: 0.62 | log FC, gene Y39B6A. 1 [2, 3]: −0.38 | log FC, gene Y94H6A.10 [2, 3]: 0.43 | log FC, gene clec-150 [2, 3]: −0.45 | log FC, gene col-19 [2, 3]: −0.47 | log FC, gene dod-6 [2, 3]: 0.69 | log FC, gene dod-24 [2, 3]: −0.49 | log FC, gene folt-2 [2, 3]: −0.49 | log FC, gene pmp-5 [2, 3]: −0.64 | log FC, gene pmt-2 [2, 3]: −0.38 | log FC, gene smd-1 [2, 3]: 0.26 | log FC, gene thn-2 [2, 3]: 0.31 | Log FC, gene C14C6.5 [2, 4]: −0.59 | Log FC, gene F16B4.4 [2, 4]: 0.66 | Log FC, gene F28B4.3 [2, 4]: −0.48 | Log FC, gene F53A9.8 [2, 4]: −0.73 | Log FC, gene F57F4.4 [2, 4]: −0.43 | Log FC, gene Y39B6A. 1 [2, 4]: −0.95 | Log FC, gene argk-1 [2, 4]: 1.14 | Log FC, gene col-95 [2, 4]: −0.56 | Log FC, gene col-124 [2, 4]: 1.76 | Log FC, gene cpr-1 [2, 4]: −2.10 | Log FC, gene ctsa-1.2 [2, 4]: −0.48 | Log FC, gene ctsa-2 [2, 4]: 0.50 | Log FC, gene folt-2 [2, 4]: −0.54 | Log FC, gene hacd-1 [2, 4]: −1.06 | Log FC, gene ilys-5 [2, 4]: −0.57 | Log FC, gene irg-5 [2, 4]: 1.39 | Log FC, gene lys-7 [2, 4]: −0.70 | Log FC, gene mtl-1 [2, 4]: −1.63 | Log FC, gene smd-1 [2, 4]: −0.35 | Log FC, gene vit-4 [2, 4]: −0.64
